For the first experiment, the system named is 889142-216-R-J1-PDC complex spheroid viability. The experiment is described as follows: Anticancer human tumor 889142-216-R-J1-PDC patient-derived bladder carcinoma cell line growth inhibition [POLQ]. The following applies: curve of first compound; second compound 0.0316 µM. In a few lines: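 Growth inhibition in 3D: complex spheroids (tumor PDC, HUVEC, MSC) treated with POLQ inhibitor combinations; where Cmax unknown, highest tested concentration 10 microM, except SN-38 at 1 microM.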
As for `C=CC(=O)N1CCN(c2nc(=O)n(-c3c(C)ccnc3C(C)C)c3nc(-c4c(O)cccc4F)c(F)cc23)C(C)C1` (configuration not stated) + Nc1ccc(C#CCN(C(=O)Cc2ncc(C(F)(F)F)cc2C(F)(F)F)c2ccc(F)cc2)nn1, the IC50 was above 10 µM.

As for `CC(C)n1c(=O)n(C)c2cnc3cc(F)c(-c4ccc(OCCCN5CCCCC5)nc4)cc3c21` + Nc1ccc(C#CCN(C(=O)Cc2ncc(C(F)(F)F)cc2C(F)(F)F)c2ccc(F)cc2)nn1, the IC50 was above 10 µM.

With `CCc1cc2c(N3CCc4c(cc(Cn5ccnc5)cc4-c4cn(C)nc4C(F)(F)F)C3=O)ccnc2c(OC)n1` + Nc1ccc(C#CCN(C(=O)Cc2ncc(C(F)(F)F)cc2C(F)(F)F)c2ccc(F)cc2)nn1, the IC50 was above 10 µM.

Take `COc1cc2cc(C(=O)CCC(=O)O)sc2cc1OC` + Nc1ccc(C#CCN(C(=O)Cc2ncc(C(F)(F)F)cc2C(F)(F)F)c2ccc(F)cc2)nn1: the IC50 is above 10 µM.

The experiment is the same for the next values; noted with them: curve of first compound; second compound 0.1 µM.
As for `C=CC(=O)N1CCN(c2nc(=O)n(-c3c(C)ccnc3C(C)C)c3nc(-c4c(O)cccc4F)c(F)cc23)C(C)C1` (configuration not stated) + Nc1ccc(C#CCN(C(=O)Cc2ncc(C(F)(F)F)cc2C(F)(F)F)c2ccc(F)cc2)nn1, the IC50 was above 10 µM.

Take `CC(C)n1c(=O)n(C)c2cnc3cc(F)c(-c4ccc(OCCCN5CCCCC5)nc4)cc3c21` + Nc1ccc(C#CCN(C(=O)Cc2ncc(C(F)(F)F)cc2C(F)(F)F)c2ccc(F)cc2)nn1: the IC50 is above 10 µM.

On to `CCc1cc2c(N3CCc4c(cc(Cn5ccnc5)cc4-c4cn(C)nc4C(F)(F)F)C3=O)ccnc2c(OC)n1` + Nc1ccc(C#CCN(C(=O)Cc2ncc(C(F)(F)F)cc2C(F)(F)F)c2ccc(F)cc2)nn1, for which the IC50 is above 10 µM.

Take `COc1cc2cc(C(=O)CCC(=O)O)sc2cc1OC` + Nc1ccc(C#CCN(C(=O)Cc2ncc(C(F)(F)F)cc2C(F)(F)F)c2ccc(F)cc2)nn1: the IC50 is above 10 µM.

Staying with this experiment, now noted: curve of first compound; second compound 0.316 µM.
Take `C=CC(=O)N1CCN(c2nc(=O)n(-c3c(C)ccnc3C(C)C)c3nc(-c4c(O)cccc4F)c(F)cc23)C(C)C1` (configuration not stated) + Nc1ccc(C#CCN(C(=O)Cc2ncc(C(F)(F)F)cc2C(F)(F)F)c2ccc(F)cc2)nn1: the IC50 was above 10 µM.

Regarding `CC(C)n1c(=O)n(C)c2cnc3cc(F)c(-c4ccc(OCCCN5CCCCC5)nc4)cc3c21` + Nc1ccc(C#CCN(C(=O)Cc2ncc(C(F)(F)F)cc2C(F)(F)F)c2ccc(F)cc2)nn1, the IC50 is above 10 µM.

In the case of `CCc1cc2c(N3CCc4c(cc(Cn5ccnc5)cc4-c4cn(C)nc4C(F)(F)F)C3=O)ccnc2c(OC)n1` + Nc1ccc(C#CCN(C(=O)Cc2ncc(C(F)(F)F)cc2C(F)(F)F)c2ccc(F)cc2)nn1, the IC50 was above 10 µM.

As to `COc1cc2cc(C(=O)CCC(=O)O)sc2cc1OC` + Nc1ccc(C#CCN(C(=O)Cc2ncc(C(F)(F)F)cc2C(F)(F)F)c2ccc(F)cc2)nn1, the IC50 is above 10 µM.

Still in this experiment, the particulars now being: curve of first compound; second compound 1 µM.
Take `C=CC(=O)N1CCN(c2nc(=O)n(-c3c(C)ccnc3C(C)C)c3nc(-c4c(O)cccc4F)c(F)cc23)C(C)C1` (configuration not stated) + Nc1ccc(C#CCN(C(=O)Cc2ncc(C(F)(F)F)cc2C(F)(F)F)c2ccc(F)cc2)nn1: the IC50 is above 10 µM.

Take `CC(C)n1c(=O)n(C)c2cnc3cc(F)c(-c4ccc(OCCCN5CCCCC5)nc4)cc3c21` + Nc1ccc(C#CCN(C(=O)Cc2ncc(C(F)(F)F)cc2C(F)(F)F)c2ccc(F)cc2)nn1: the IC50 is above 10 µM.

`CCc1cc2c(N3CCc4c(cc(Cn5ccnc5)cc4-c4cn(C)nc4C(F)(F)F)C3=O)ccnc2c(OC)n1` + Nc1ccc(C#CCN(C(=O)Cc2ncc(C(F)(F)F)cc2C(F)(F)F)c2ccc(F)cc2)nn1: the IC50 was above 10 µM.

With `COc1cc2cc(C(=O)CCC(=O)O)sc2cc1OC` + Nc1ccc(C#CCN(C(=O)Cc2ncc(C(F)(F)F)cc2C(F)(F)F)c2ccc(F)cc2)nn1, the IC50 was above 10 µM.

Staying with this experiment, now noted: curve of first compound; second compound 3.16 µM.
In the case of `C=CC(=O)N1CCN(c2nc(=O)n(-c3c(C)ccnc3C(C)C)c3nc(-c4c(O)cccc4F)c(F)cc23)C(C)C1` (configuration not stated) + Nc1ccc(C#CCN(C(=O)Cc2ncc(C(F)(F)F)cc2C(F)(F)F)c2ccc(F)cc2)nn1, the IC50 is above 10 µM.

Consider `CC(C)n1c(=O)n(C)c2cnc3cc(F)c(-c4ccc(OCCCN5CCCCC5)nc4)cc3c21` + Nc1ccc(C#CCN(C(=O)Cc2ncc(C(F)(F)F)cc2C(F)(F)F)c2ccc(F)cc2)nn1, for which the IC50 is above 10 µM.

For `CCc1cc2c(N3CCc4c(cc(Cn5ccnc5)cc4-c4cn(C)nc4C(F)(F)F)C3=O)ccnc2c(OC)n1` + Nc1ccc(C#CCN(C(=O)Cc2ncc(C(F)(F)F)cc2C(F)(F)F)c2ccc(F)cc2)nn1, the IC50 is above 10 µM.

As to `COc1cc2cc(C(=O)CCC(=O)O)sc2cc1OC` + Nc1ccc(C#CCN(C(=O)Cc2ncc(C(F)(F)F)cc2C(F)(F)F)c2ccc(F)cc2)nn1, the IC50 is above 10 µM.

Still in this experiment, the particulars now being: curve of first compound; second compound 10 µM.
`C=CC(=O)N1CCN(c2nc(=O)n(-c3c(C)ccnc3C(C)C)c3nc(-c4c(O)cccc4F)c(F)cc23)C(C)C1` (configuration not stated) + Nc1ccc(C#CCN(C(=O)Cc2ncc(C(F)(F)F)cc2C(F)(F)F)c2ccc(F)cc2)nn1: the IC50 is above 10 µM.

For the molecule `CC(C)n1c(=O)n(C)c2cnc3cc(F)c(-c4ccc(OCCCN5CCCCC5)nc4)cc3c21` + Nc1ccc(C#CCN(C(=O)Cc2ncc(C(F)(F)F)cc2C(F)(F)F)c2ccc(F)cc2)nn1, the IC50 is above 10 µM.

Take `CCc1cc2c(N3CCc4c(cc(Cn5ccnc5)cc4-c4cn(C)nc4C(F)(F)F)C3=O)ccnc2c(OC)n1` + Nc1ccc(C#CCN(C(=O)Cc2ncc(C(F)(F)F)cc2C(F)(F)F)c2ccc(F)cc2)nn1: the IC50 was above 10 µM.

`COc1cc2cc(C(=O)CCC(=O)O)sc2cc1OC` + Nc1ccc(C#CCN(C(=O)Cc2ncc(C(F)(F)F)cc2C(F)(F)F)c2ccc(F)cc2)nn1: the IC50 is above 10 µM.

The experiment is the same for the next values; noted with them: second compound 0.0316 µM; first compound 0.0316 µM; stronger effect = lower value.
`C=CC(=O)N1CCN(c2nc(=O)n(-c3c(C)ccnc3C(C)C)c3nc(-c4c(O)cccc4F)c(F)cc23)C(C)C1` (configuration not stated) + Nc1ccc(C#CCN(C(=O)Cc2ncc(C(F)(F)F)cc2C(F)(F)F)c2ccc(F)cc2)nn1: the viability, T/C is 95.4%.

For `CC(C)n1c(=O)n(C)c2cnc3cc(F)c(-c4ccc(OCCCN5CCCCC5)nc4)cc3c21` + Nc1ccc(C#CCN(C(=O)Cc2ncc(C(F)(F)F)cc2C(F)(F)F)c2ccc(F)cc2)nn1, the viability, T/C was 96.5%.

As to `CCc1cc2c(N3CCc4c(cc(Cn5ccnc5)cc4-c4cn(C)nc4C(F)(F)F)C3=O)ccnc2c(OC)n1` + Nc1ccc(C#CCN(C(=O)Cc2ncc(C(F)(F)F)cc2C(F)(F)F)c2ccc(F)cc2)nn1, the viability, T/C was 98%.

Take `COc1cc2cc(C(=O)CCC(=O)O)sc2cc1OC` + Nc1ccc(C#CCN(C(=O)Cc2ncc(C(F)(F)F)cc2C(F)(F)F)c2ccc(F)cc2)nn1: the viability, T/C is 88.3%.

Still in this experiment, the particulars now being: second compound 0.0316 µM; first compound 0.1 µM; stronger effect = lower value.
With `C=CC(=O)N1CCN(c2nc(=O)n(-c3c(C)ccnc3C(C)C)c3nc(-c4c(O)cccc4F)c(F)cc23)C(C)C1` (configuration not stated) + Nc1ccc(C#CCN(C(=O)Cc2ncc(C(F)(F)F)cc2C(F)(F)F)c2ccc(F)cc2)nn1, the viability, T/C is 111%.

Take `CC(C)n1c(=O)n(C)c2cnc3cc(F)c(-c4ccc(OCCCN5CCCCC5)nc4)cc3c21` + Nc1ccc(C#CCN(C(=O)Cc2ncc(C(F)(F)F)cc2C(F)(F)F)c2ccc(F)cc2)nn1: the viability, T/C was 113%.

`CCc1cc2c(N3CCc4c(cc(Cn5ccnc5)cc4-c4cn(C)nc4C(F)(F)F)C3=O)ccnc2c(OC)n1` + Nc1ccc(C#CCN(C(=O)Cc2ncc(C(F)(F)F)cc2C(F)(F)F)c2ccc(F)cc2)nn1: the viability, T/C was 105%.

Take `COc1cc2cc(C(=O)CCC(=O)O)sc2cc1OC` + Nc1ccc(C#CCN(C(=O)Cc2ncc(C(F)(F)F)cc2C(F)(F)F)c2ccc(F)cc2)nn1: the viability, T/C was 108%.

Staying with this experiment, now noted: second compound 0.0316 µM; first compound 0.316 µM; stronger effect = lower value.
For the molecule `C=CC(=O)N1CCN(c2nc(=O)n(-c3c(C)ccnc3C(C)C)c3nc(-c4c(O)cccc4F)c(F)cc23)C(C)C1` (configuration not stated) + Nc1ccc(C#CCN(C(=O)Cc2ncc(C(F)(F)F)cc2C(F)(F)F)c2ccc(F)cc2)nn1, the viability, T/C is 87.8%.

In the case of `CC(C)n1c(=O)n(C)c2cnc3cc(F)c(-c4ccc(OCCCN5CCCCC5)nc4)cc3c21` + Nc1ccc(C#CCN(C(=O)Cc2ncc(C(F)(F)F)cc2C(F)(F)F)c2ccc(F)cc2)nn1, the viability, T/C was 119%.

In the case of `CCc1cc2c(N3CCc4c(cc(Cn5ccnc5)cc4-c4cn(C)nc4C(F)(F)F)C3=O)ccnc2c(OC)n1` + Nc1ccc(C#CCN(C(=O)Cc2ncc(C(F)(F)F)cc2C(F)(F)F)c2ccc(F)cc2)nn1, the viability, T/C was 116%.

On to `COc1cc2cc(C(=O)CCC(=O)O)sc2cc1OC` + Nc1ccc(C#CCN(C(=O)Cc2ncc(C(F)(F)F)cc2C(F)(F)F)c2ccc(F)cc2)nn1, for which the viability, T/C is 96.6%.

Staying with this experiment, now noted: second compound 0.0316 µM; first compound 1 µM; stronger effect = lower value.
With `C=CC(=O)N1CCN(c2nc(=O)n(-c3c(C)ccnc3C(C)C)c3nc(-c4c(O)cccc4F)c(F)cc23)C(C)C1` (configuration not stated) + Nc1ccc(C#CCN(C(=O)Cc2ncc(C(F)(F)F)cc2C(F)(F)F)c2ccc(F)cc2)nn1, the viability, T/C was 121%.

For the molecule `CC(C)n1c(=O)n(C)c2cnc3cc(F)c(-c4ccc(OCCCN5CCCCC5)nc4)cc3c21` + Nc1ccc(C#CCN(C(=O)Cc2ncc(C(F)(F)F)cc2C(F)(F)F)c2ccc(F)cc2)nn1, the viability, T/C is 79.2%.

Turning to `CCc1cc2c(N3CCc4c(cc(Cn5ccnc5)cc4-c4cn(C)nc4C(F)(F)F)C3=O)ccnc2c(OC)n1` + Nc1ccc(C#CCN(C(=O)Cc2ncc(C(F)(F)F)cc2C(F)(F)F)c2ccc(F)cc2)nn1, the viability, T/C was 137%.

Consider `COc1cc2cc(C(=O)CCC(=O)O)sc2cc1OC` + Nc1ccc(C#CCN(C(=O)Cc2ncc(C(F)(F)F)cc2C(F)(F)F)c2ccc(F)cc2)nn1, for which the viability, T/C was 92.9%.

Still in this experiment, the particulars now being: second compound 0.0316 µM; first compound 3.16 µM; stronger effect = lower value.
For `C=CC(=O)N1CCN(c2nc(=O)n(-c3c(C)ccnc3C(C)C)c3nc(-c4c(O)cccc4F)c(F)cc23)C(C)C1` (configuration not stated) + Nc1ccc(C#CCN(C(=O)Cc2ncc(C(F)(F)F)cc2C(F)(F)F)c2ccc(F)cc2)nn1, the viability, T/C was 133%.

Consider `CC(C)n1c(=O)n(C)c2cnc3cc(F)c(-c4ccc(OCCCN5CCCCC5)nc4)cc3c21` + Nc1ccc(C#CCN(C(=O)Cc2ncc(C(F)(F)F)cc2C(F)(F)F)c2ccc(F)cc2)nn1, for which the viability, T/C is 65.5%.

One may read the IC50 as the concentration needed to halve the response being measured. Broadly, the viability, T/C is the ratio of treated to control.

The record behind these values is PubChem BioAssay AID1963831 (Molecular Pharmacology Branch, DTP, NCI, 2024).
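Also: spheroids exposed to compounds for seven days.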
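For viability, T/C in this document: 100% = DMSO vehicle control viability.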
